Test results reported in ChEMBL document CHEMBL1201862, “PubChem BioAssay data set” (2004).
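Five concentrations, 48 hours, 96-well plates. At the GI50, growth is halved.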 Activity calls are given as the source filed them. No stated cut-off is given here; in the data, active = GI50 up to about 1.1 µM and inactive = higher.

What was measured:
Test in all cases: growth of human tumour cells (NCI), 48 h
786-0 = system: 786-0
A498 = system: A498
A549 = system: A549
CCRF-CEM = system: CCRF-CEM
DU-145 = system: DU-145
Hs-578T = system: Hs-578T
MDA-MB-231 = system: MDA-MB-231
MDA-N = system: MDA-N
NCI-H23 = system: NCI-H23
NCI-H460 = system: NCI-H460
RXF 393 = system: RXF 393
SF-295 = system: SF-295
SK-MEL-28 = system: SK-MEL-28
SK-MEL-5 = system: SK-MEL-5
SNB-75 = system: SNB-75
SW-620 = system: SW-620
TK-10 = system: TK-10
UO-31 = system: UO-31
SK-OV-3 = system: SK-OV-3
MCF7 = system: MCF7

Measured: GI50

c1ccc2sc(SCSc3nc4ccccc4s3)nc2c1
inactive: 786-0 82.4 µM | A498 > 100 µM | A549 81.3 µM | CCRF-CEM 47.4 µM | DU-145 > 100 µM | Hs-578T > 100 µM | MDA-MB-231 > 100 µM | MDA-N 76.2 µM | NCI-H23 70.3 µM | NCI-H460 22.4 µM | RXF 393 > 100 µM | SF-295 43.3 µM | SK-MEL-28 > 100 µM | SK-MEL-5 30.1 µM | SNB-75 > 100 µM | SW-620 96.8 µM | TK-10 66.4 µM | UO-31 86.1 µM

CCOC(=O)c1ccc(-c2cc(C)no2)[nH]1
inactive: 786-0 > 100 µM | A498 63.7 µM | A549 51.5 µM | CCRF-CEM > 100 µM | DU-145 > 100 µM | MDA-MB-231 76 µM | MDA-N 22 µM | NCI-H23 > 100 µM | NCI-H460 33.8 µM | RXF 393 > 100 µM | SF-295 > 100 µM | SK-MEL-28 > 100 µM | SK-MEL-5 81.3 µM | SK-OV-3 > 100 µM | SNB-75 60.1 µM | SW-620 45.3 µM | TK-10 > 100 µM | UO-31 > 100 µM

CCN(CC)c1ccc2cc(-c3nnc(-c4ccccc4)[nH]3)c(=O)oc2c1
inactive: 786-0 14.3 µM | A498 22.9 µM | A549 68.5 µM | CCRF-CEM 39.7 µM | DU-145 14.8 µM | Hs-578T 39.9 µM | MCF7 > 100 µM | MDA-N > 100 µM | NCI-H23 6.49 µM | NCI-H460 82 µM | SF-295 24.5 µM | SK-MEL-28 > 100 µM | SK-MEL-5 > 100 µM | SK-OV-3 19.8 µM | SW-620 33.7 µM | UO-31 4.39 µM

N#CC(c1ccccc1)c1cccc2ccccc12 (stereo not given)
inactive: 786-0 69.5 µM | A498 30.4 µM | A549 20.1 µM | DU-145 50.5 µM | Hs-578T 36.7 µM | MCF7 33.6 µM | MDA-MB-231 48.6 µM | NCI-H23 42.1 µM | NCI-H460 35.8 µM | SF-295 46.7 µM | SK-MEL-28 69.7 µM | SK-MEL-5 18.2 µM | SNB-75 > 100 µM | SW-620 38.4 µM | TK-10 42.4 µM | UO-31 28.2 µM

CCCCC(O)(c1ccccc1)C(O)(c1ccccc1)c1c(F)c(F)c(F)c(F)c1F (stereo not given)
inactive: 786-0 20.1 µM | A498 25.5 µM | A549 28.4 µM | CCRF-CEM 25.4 µM | DU-145 48.1 µM | MCF7 20.3 µM | MDA-MB-231 16 µM | MDA-N 17.9 µM | NCI-H23 29 µM | NCI-H460 23.7 µM | SF-295 > 10 µM | SK-MEL-28 27 µM | SK-MEL-5 18.4 µM | SK-OV-3 21.5 µM | SNB-75 37.2 µM | SW-620 25.2 µM | TK-10 26.4 µM | UO-31 30.3 µM

c1ccc2c(c1)nc1ccccn12
inactive: 786-0 > 100 µM | A498 1.37 µM | A549 > 100 µM | CCRF-CEM > 100 µM | DU-145 > 100 µM | Hs-578T 33.6 µM | MCF7 > 100 µM | MDA-N > 100 µM | NCI-H23 > 100 µM | NCI-H460 > 100 µM | RXF 393 > 100 µM | SF-295 > 100 µM | SK-MEL-28 > 100 µM | SK-MEL-5 > 100 µM | SK-OV-3 > 100 µM | SNB-75 > 100 µM | SW-620 > 100 µM | TK-10 > 100 µM | UO-31 > 100 µM

Cn1c(C(C#N)c2cc(Cl)ncn2)nc2ccccc21 (stereo not given)
inactive: 786-0 > 100 µM | A498 > 100 µM | A549 > 100 µM | DU-145 > 100 µM | MDA-MB-231 > 100 µM | MDA-N > 100 µM | NCI-H23 > 100 µM | NCI-H460 > 100 µM | RXF 393 > 100 µM | SF-295 > 100 µM | SK-MEL-28 > 100 µM | SK-MEL-5 > 100 µM | SK-OV-3 > 100 µM | SNB-75 > 100 µM | SW-620 > 100 µM | TK-10 > 100 µM | UO-31 > 100 µM

COC(=O)C(Nc1ccc(OC)cc1)c1ccccc1 (stereo not given)
inactive: 786-0 > 100 µM | A549 > 100 µM | CCRF-CEM > 100 µM | DU-145 > 100 µM | Hs-578T > 100 µM | MCF7 > 100 µM | MDA-N > 100 µM | NCI-H23 > 100 µM | NCI-H460 > 100 µM | SF-295 89.3 µM | SK-MEL-28 > 100 µM | SK-MEL-5 > 100 µM | SW-620 > 100 µM | TK-10 > 100 µM | UO-31 > 100 µM

Cc1cc(C[C@H]2O[C@@H]3OC(C)(C)O[C@@H]3[C@H]3OC(C)(C)O[C@H]32)c2ccccc2n1
inactive: 786-0 > 100 µM | A498 > 100 µM | A549 63.4 µM | CCRF-CEM 42.1 µM | DU-145 > 100 µM | Hs-578T 26.4 µM | MDA-N 41.3 µM | NCI-H23 52.7 µM | NCI-H460 30 µM | RXF 393 39.1 µM | SF-295 > 100 µM | SK-MEL-28 > 100 µM | SK-MEL-5 55.6 µM | SK-OV-3 > 100 µM | SNB-75 > 100 µM | SW-620 > 100 µM | TK-10 > 100 µM | UO-31 33.3 µM

COc1ccc(C2CC(=O)CC(c3ccc(OC)cc3)C23C(=O)NC(=O)NC3=O)cc1 (stereo not given)
inactive: 786-0 30.5 µM | CCRF-CEM 32.7 µM | DU-145 48 µM | MCF7 25.1 µM | MDA-MB-231 39.1 µM | MDA-N 31.8 µM | NCI-H23 23.4 µM | NCI-H460 35.8 µM | RXF 393 45.9 µM | SF-295 38 µM | SK-MEL-28 17.2 µM | SK-MEL-5 25 µM | SNB-75 25.8 µM | SW-620 18.7 µM | TK-10 89.5 µM | UO-31 31.6 µM

COc1cc(/C=C2\C[C@H]3[C@@H]4CCc5cc(OCCN6CCCC6)ccc5[C@H]4CC[C@]3(C)C2=O)cc(OC)c1OC
inactive: 786-0 1.85 µM | A498 1.78 µM | A549 1.69 µM | DU-145 1.87 µM | MCF7 1.65 µM | MDA-MB-231 1.79 µM | MDA-N 1.67 µM | NCI-H23 2.41 µM | NCI-H460 1.76 µM | RXF 393 1.57 µM | SF-295 1.79 µM | SK-MEL-5 1.53 µM | SK-OV-3 2.7 µM | SW-620 1.91 µM | TK-10 2.53 µM | UO-31 1.54 µM

CCn1c(=O)c2nc(SC)sc2n(-c2ccccc2)c1=O
inactive: 786-0 > 100 µM | A549 > 100 µM | CCRF-CEM > 100 µM | DU-145 > 100 µM | MCF7 > 100 µM | MDA-MB-231 > 100 µM | MDA-N > 100 µM | NCI-H23 > 100 µM | NCI-H460 > 100 µM | RXF 393 > 100 µM | SF-295 > 100 µM | SK-MEL-28 > 100 µM | SK-MEL-5 > 100 µM | SK-OV-3 > 100 µM | SNB-75 > 100 µM | SW-620 > 100 µM | TK-10 > 100 µM | UO-31 26 µM
